The test concerns the target T1, human sAC (Homo sapiens, UniProt Q96PN6).
T1 construct: made in house
T1 sequence (Q96PN6 1-469 limits assumed): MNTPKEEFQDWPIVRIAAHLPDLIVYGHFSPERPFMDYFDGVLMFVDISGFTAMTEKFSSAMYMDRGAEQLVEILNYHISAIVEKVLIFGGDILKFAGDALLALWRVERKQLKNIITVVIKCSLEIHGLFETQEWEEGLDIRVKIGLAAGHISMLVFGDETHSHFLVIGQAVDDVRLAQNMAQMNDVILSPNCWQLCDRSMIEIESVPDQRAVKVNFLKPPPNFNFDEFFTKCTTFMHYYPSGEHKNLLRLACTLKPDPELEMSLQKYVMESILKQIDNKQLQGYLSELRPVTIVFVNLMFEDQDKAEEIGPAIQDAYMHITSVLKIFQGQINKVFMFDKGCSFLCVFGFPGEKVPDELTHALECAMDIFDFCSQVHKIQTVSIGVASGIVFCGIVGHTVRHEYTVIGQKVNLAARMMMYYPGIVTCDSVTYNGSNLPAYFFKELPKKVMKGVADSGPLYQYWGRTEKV
The test can be described thus: in vitro adenylyl cyclase assay with purified human sAC protein (cAMP by Correlate-EIA). It is filed as biochemical. The method, then: Purified human sAC protein was used in an in vitro adenylyl cyclase assay. Purification of the protein is described in detail in Litvin et al. 2003. (J. Biol. Chem. 278:15922-15926). This paper also describes the general conditions for a sAC cyclase assay. The specific conditions for the in vitro assay are as follows.
For basal sAC activity, an assay master mixture with sufficient volume for all reactions was prepared containing:
100 U/ml creatine phosphokinase (CPK)
An aliquot of the master mixture was added to the purified human sAC. The assay mixture also included the indicated concentration of KH compound, or an equivalent volume of vehicle (i.e., DMSO) as control. The reaction was started by adding 5 mM ATP (total assay volume=100 μL). The reaction mixture was incubated at 30° C. for 30 minutes and then stopped by adding 100 μl […]. Stimulated assay conditions involve adding 40 mM bicarbonate and 5 mM CaCl2 to the above master mixture.
Cyclic AMP levels were measured in each sample using the Correlate-EIA Direct Cyclic AMP assay kit from Assay Designs as per manufacturers instructions.

Where [1] appears, read: 100 μM of compound, BASAL human sAC in vitro activity, read-out: % Inhibition (100 μM), hsACt-Basal.
The mark [2] stands for this setting: 100 μM of compound, stimulated human sAC in vitro activity, read-out: % Inhibition (100 μM), hsACt-Stim.
The mark [3] stands for this setting: BASAL activity of human sAC in vitro (just Mg-ATP, no calcium or bicarbonate), read-out: hsACt-Basal approximate IC50 (or the dose range where the IC50 should lie).
Setting [4] is: stimulated activity of human sAC in vitro (calcium and bicarbonate stimulated), read-out: hsACt-Stim. approximate IC50 (or the dose range where the IC50 should lie).
Where [5] appears, read: 100 μM of compound, stimulated human sAC in vitro activity.

34 compounds from patent US9017681B2, “Adenylyl cyclases as novel targets for antibactrial interventions” (Cornell Research Foundation, Inc., priority 2007, dated 2015) can be followed below.

Each structure is given as a SMILES string. Read-outs that look alike come from different tables or passages of the source.

A word on the inhibition: it is how much of the control response was suppressed. The IC50 is the concentration that inhibits the measured activity by half. As to `O=C(CSc1nc2ccccc2[nH]1)N/N=C/c1ccccc1C(=O)O` [KH7.112], the inhibition at 100 µM reads like this: under setting [1], 0%; under setting [2], 0%. Besides, the IC50 runs as follows: under setting [3], over 100 µM; under setting [4], over 100 µM.

For the compound `C/C(=N/NC(=O)CSc1nc2ccccc2[nH]1)c1ccc(-c2ccccc2)cc1` [KH7.113], the inhibition at 100 µM is 80% under setting [1] and 80% under setting [2]. Besides, the IC50 under setting [3] lay within 10 to 100 µM and the half-inhibitory concentration (IC50) under setting [4] is 10 to 100 µM.

Regarding `C/C(=N/NC(=O)CSc1nc2ccccc2[nH]1)c1ccc(Cl)c(Cl)c1` [KH7.115], the inhibition at 100 µM reads like this: under setting [1], 80%; under setting [2], 80%. Further, the half-inhibitory concentration (IC50) fell in the range of 10 to 100 µM under setting [3] and 10 to 100 µM under setting [4].

For `C/C(=N/NC(=O)CSc1nc2ccccc2[nH]1)c1cccnc1` [KH7.116], the “Activation, printed in column % Inhibition (100 μM), hsACt-Basal” value (100 μM of compound, BASAL human sAC in vitro activity) was “Activation 30%”. For the same compound, under setting [5], the “Activation, printed in column % Inhibition (100 μM), hsACt-Stim.” value is reported as “Activation 50%”. The IC50 under setting [4] lay within 0.1 to 1 µM.

In the case of `C/C(=N/NC(=O)CSc1nc2ccccc2[nH]1)c1ccc(F)cc1` [KH7.118], the inhibition at 100 µM was 0% under setting [1] and 0% under setting [2]. The half-maximal inhibitory concentration (IC50) under setting [3] was over 100 µM and the IC50 under setting [4] was over 100 µM.

With `C/C(=N/NC(=O)CSc1nc2ccccc2[nH]1)c1cccc(Br)c1` [KH7.119], the inhibition at 100 µM runs as follows: under setting [1], 60%; under setting [2], 80%. Also, the IC50 was 10 to 100 µM under setting [3] and 10 to 100 µM under setting [4].

With `O=C(CSc1nc2ccccc2[nH]1)N/N=C/c1ccccc1I` [KH7.121], the inhibition at 100 µM reads like this: under setting [1], 90%; under setting [2], 90%. In addition, the IC50 reads like this: under setting [3], 10 to 100 µM; under setting [4], 10 to 100 µM.

`O=C(CSc1nc2ccccc2[nH]1)N/N=C/c1ccc([N+](=O)[O-])cc1` [KH7.122]: the inhibition at 100 µM is, setting by setting: under setting [1], 50%; under setting [2], 50%.

As to `O=C(CSc1nc2ccccc2[nH]1)N/N=C/c1cccnc1` [KH7.123], the inhibition at 100 µM is, setting by setting: under setting [1], 0%; under setting [2], 0%. Further, the IC50 reads like this: under setting [3], over 100 µM; under setting [4], over 100 µM.

For `COc1cc(/C=N/NC(=O)CSc2nc3ccccc3[nH]2)cc(OC)c1OC(C)=O` [KH7.124], the inhibition at 100 µM came to 40% under setting [1] and 30% under setting [2]. For the same compound, the IC50 is over 100 µM under setting [3] and over 100 µM under setting [4].

For `O=C(CSc1nc2ccccc2[nH]1)N/N=C/c1cccc2ccccc12` [KH7.126], the inhibition at 100 µM reads like this: under setting [1], 40%; under setting [2], 50%. Further, the IC50 runs as follows: under setting [3], over 100 µM; under setting [4], 10 to 100 µM.

As for `O=C(CSc1nc2ccccc2[nH]1)N/N=C/c1cccc(Cl)c1` [KH7.128], the inhibition at 100 µM under setting [1] is 50% and the inhibition at 100 µM under setting [2] amounted to 50%.

In the case of `O=C(CSc1nc2ccccc2[nH]1)N/N=C/c1c(Cl)cccc1Cl` [KH7.130], the inhibition at 100 µM is, setting by setting: under setting [1], 50%; under setting [2], 50%.

In the case of `O=C(CSc1nc2ccccc2[nH]1)N/N=C/c1ccccc1Br` [KH7.131], the inhibition at 100 µM under setting [1] amounted to 60% and the inhibition at 100 µM under setting [2] stood at 60%. In addition, the IC50 lay in the range of 10 to 100 µM under setting [3] and 10 to 100 µM under setting [4].

With `COc1ccc(/C=N/NC(=O)CSc2nc3ccccc3[nH]2)cc1` [KH7.132], the inhibition at 100 µM was determined as 10% under setting [1] and 0% under setting [2]. Further, the concentration for half-maximal inhibition (IC50) runs as follows: under setting [3], over 100 µM; under setting [4], over 100 µM.

On to `O=C(CSc1nc2ccccc2[nH]1)N/N=C/c1ccccc1Cl` [KH7.133], for which the inhibition at 100 µM under setting [1] was 60%. In addition, under setting [3], the 50% inhibitory concentration (IC50) was in the range of 10 to 100 µM.

As for `Cc1ccc(/C=N/NC(=O)CSc2nc3ccccc3[nH]2)cc1` [KH7.134], the inhibition at 100 µM came to 0% under setting [1] and 0% under setting [2]. The IC50 is, setting by setting: under setting [3], over 100 µM; under setting [4], over 100 µM.

`CC(C)c1ccc(/C=N/NC(=O)CSc2nc3ccccc3[nH]2)cc1` [KH7.135]: the inhibition at 100 µM runs as follows: under setting [1], 50%; under setting [2], 0%. For the same compound, the IC50 under setting [4] is over 100 µM.

As to `CCN(CC)c1ccc(/C=N/NC(=O)CSc2nc3ccccc3[nH]2)cc1` [KH7.136], the inhibition at 100 µM came out at 80% under setting [1] and 40% under setting [2]. In addition, the half-maximal inhibitory concentration (IC50) is 10 to 100 µM under setting [3] and over 100 µM under setting [4].

With `O=C(CSc1nc2ccccc2[nH]1)N/N=C/c1ccc(Cl)cc1` [KH7.137], the inhibition at 100 µM under setting [1] came out at 0%. Moreover, the “Activation, printed in column % Inhibition (100 μM), hsACt-Stim.” value under setting [5] was “Activation 100%”. The 50% inhibitory concentration (IC50) was over 100 µM under setting [3] and 30 to 100 µM under setting [4].

With `C/C(=N\NC(=O)CSc1nc2ccccc2[nH]1)c1ccc([N+](=O)[O-])cc1` [KH7.138], the inhibition at 100 µM reads like this: under setting [1], 30%; under setting [2], 25%. In addition, the IC50 is, setting by setting: under setting [3], over 100 µM; under setting [4], over 100 µM.

For `Cn1c(SCC(=O)N/N=C/c2cc(Br)ccc2O)nc2ccccc21` [KH7.139], the “% Inhibition (100 μM), hsACt-Basal” value (100 μM of compound, BASAL human sAC in vitro activity, 100 µM) worked out at 70%. For the same compound, the inhibition at 100 µM came to 75% under setting [1] and 75% under setting [2]. Moreover, the “% Inhibition (100 μM), hsACt-Stim.” value (100 μM of compound, stimulated human sAC in vitro activity, 100 µM) came out at 70%. In addition, the IC50 runs as follows: under setting [3], 1 to 10 µM; under setting [4], 1 to 10 µM.

As to `Cn1c(SCC(=O)N/N=C/c2ccccn2)nc2ccccc21` [KH7.140], the inhibition at 100 µM reads like this: under setting [1], 0%; under setting [2], 0%. The IC50 is, setting by setting: under setting [3], over 100 µM; under setting [4], over 100 µM.

For `O=C(CSc1nc2ccccc2n1Cc1ccccc1)N/N=C/c1cc(Br)ccc1O` [KH7.141], the inhibition at 100 µM worked out at 80% under setting [1] and 80% under setting [2]. The half-maximal inhibitory concentration (IC50) is, setting by setting: under setting [3], 1 to 10 µM; under setting [4], 1 µM.

Take `Cc1ccc(Cn2c(SCC(=O)N/N=C/c3ccncc3)nc3ccccc32)cc1` [KH7.142]: the inhibition at 100 µM under setting [1] was determined as 0%. For the same compound, the “Activation in words, printed in column % Inhibition (100 μM), hsACt-Stim.” value (@ 100, stimulated human sAC in vitro activity) was “Activation @ 100”. Moreover, the concentration for half-maximal inhibition (IC50) is over 100 µM under setting [3] and 1 to 10 µM under setting [4].

On to `Cc1ccc(Cn2c(SCC(=O)N/N=C/c3cc(Br)ccc3O)nc3ccccc32)cc1` [KH7.143], for which the inhibition at 100 µM amounted to 75% under setting [1] and 75% under setting [2]. The half-inhibitory concentration (IC50) reads like this: under setting [3], 1 µM; under setting [4], 1 µM.

`O=C(CSc1nc2ccccc2n1Cc1ccc(Cl)cc1)N/N=C\c1cc(Br)ccc1O` [KH7.144]: the inhibition at 100 µM by setting is: under setting [1], 70%; under setting [2], 80%. Besides, the IC50 is, setting by setting: under setting [3], 1 µM; under setting [4], 1 µM.

In the case of `CCOc1ccc(/C=N/NC(=O)CSc2nc3ccccc3[nH]2)cc1OC` [KH7.145], the inhibition at 100 µM reads like this: under setting [1], 0%; under setting [2], 20%. Moreover, the IC50 was over 100 µM under setting [3] and over 100 µM under setting [4].

Take `O=C(CSc1nc2ccccc2[nH]1)N/N=C/c1ccc(Cl)c([N+](=O)[O-])c1` [KH7.146]: the inhibition at 100 µM by setting is: under setting [1], 50%; under setting [2], 40%. Moreover, the concentration for half-maximal inhibition (IC50) under setting [4] is over 100 µM.

Turning to `O=C(CSc1nc2ccccc2[nH]1)N/N=C/c1cc(Br)cc(Br)c1O` [KH7.149], the inhibition at 100 µM runs as follows: under setting [1], 90%; under setting [2], 85%. Also, the half-maximal inhibitory concentration (IC50) reads like this: under setting [3], 1 µM; under setting [4], 1 µM.

`O=C(CSc1nc2ccccc2[nH]1)N/N=C/c1ccc(C(F)(F)F)cc1` [KH7.150]: the inhibition at 100 µM is, setting by setting: under setting [1], 0%; under setting [2], 0%. For the same compound, the IC50 reads like this: under setting [3], over 100 µM; under setting [4], over 100 µM.

Regarding `COc1ccc(/C=N/NC(=O)CSc2nc3ccccc3[nH]2)cc1Br` [KH7.151], the inhibition at 100 µM by setting is: under setting [1], 75%; under setting [2], 50%. For the same compound, the 50% inhibitory concentration (IC50) by setting is: under setting [3], 10 to 100 µM; under setting [4], 10 to 100 µM.

As for `O=C(CSc1nc2ccccc2[nH]1)N/N=C/c1cc(Br)ccc1F` [KH7.152], under setting [1], the inhibition at 100 µM is 60%. In addition, under setting [3], the concentration for half-maximal inhibition (IC50) fell in the range of 10 to 100 µM.

As for `O=C(CSc1nc2ccccc2[nH]1)N/N=C/c1cccc(F)c1` [KH7.153], the inhibition at 100 µM under setting [1] was found to be 0% and the inhibition at 100 µM under setting [2] was found to be 0%. In addition, the IC50 under setting [3] was over 100 µM and the IC50 under setting [4] was over 100 µM.
